Where two headings read alike, the source gives them in different places. Where a SMILES comes first, the peptide text is derived from it.
Legend:
HCoV-NL63 M^pro = HCoV-NL63 M^pro (Human coronavirus NL63, UniProt P0C6X5); format: cell-based; settings: read-out: EC50 NL63 M^pro inhibition, cellular gain-of-signal
293T cells = settings: up to the highest tested concentration (100 μM)
SARS2 M^pro = settings: cited from earlier work
SARS2 replication = settings: read-out: EC50 against SARS2 replication; cited from earlier work

Chain of HCoV-NL63 M^pro (P0C6X5 2940-3242): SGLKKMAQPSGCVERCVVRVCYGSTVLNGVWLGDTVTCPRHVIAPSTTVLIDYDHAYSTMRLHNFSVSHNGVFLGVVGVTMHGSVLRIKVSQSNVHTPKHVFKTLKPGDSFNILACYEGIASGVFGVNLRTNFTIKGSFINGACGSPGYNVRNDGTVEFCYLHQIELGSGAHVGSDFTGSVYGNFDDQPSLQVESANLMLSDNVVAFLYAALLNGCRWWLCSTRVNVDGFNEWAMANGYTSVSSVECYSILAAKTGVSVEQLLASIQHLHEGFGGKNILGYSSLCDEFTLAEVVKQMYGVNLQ

In the case of `CC(C)C[C@H](NC(=O)OCc1ccccc1)C(=O)N[C@@H](CC1CCNC1=O)C(O)S(=O)(=O)O` (some centres unmarked) [GC376], the EC50 (HCoV-NL63 M^pro) is reported as 770 nM.

For `CSCCC(C=O)NC(=O)C(CC(C)C)NC(=O)C(CC(C)C)NC(C)=O` (stereo not drawn) [MWAC-0001889, CSCCC(NC(=O)C(CC(C)C)NC(=O)C(CC(C)C)NC(=O)C)C=O] (Ac-Leu-Leu-Met-aldehyde; configuration not given here), the “toxicity in 293T cells” value (293T cells) is listed as “no toxicity” and the IC50 (SARS2 M^pro; read-out: IC50 SARS2 M^pro in a biochemical assay, ref [29],[32],[39],[58],[59]) is listed as 970 nM.

For `O=C(NCc1cccs1)C1CN(C(=O)c2cccnc2)CCN1c1ccc(Cl)c(Cl)c1` (centres unmarked) [GC-14, reference compound], the IC50 (SARS2 M^pro; read-out: IC50 in a similar biochemical assay, ref [60]–[61]) is given as 400 nM and the EC50 (SARS2 replication) is given as 1100 nM.

Source: paper PMC11550483 (2024)
